In patent publication US20210355104A1, “ADENOSINE RECEPTOR BINDING COMPOUNDS” (Nikang Therapeuticsm Inc., priority 2018, published 2021):
Several values for one entry are separate records, joined by “and”; a condition that tells them apart may be missing. Equal values may be shown once.

Experiments:
[1] = target: T1, Adenosine A2A receptor (Homo sapiens, UniProt P29274); assay: cAMP assay in 293A cells stably expressing the adenosine A2A receptor (CGS21680 stimulation, HTRF); format: cell-based; set-up: expressed in transfected cells; host or cells: 293A cells (Invitrogen, Cat# R705-07) infected with A2A-expressing lentivirus (custom packaged by Biosettia), puromycin selected; details: 293A-A2AR cells, 0.1% BSA
[2] = target: T1, Adenosine A2A receptor; assay: Adenosine A2A receptor competitive binding assay (Tag-lite HTRF); details: Tag-lite adenosine A2A receptor ligand binding
Protocol: Adenosine A2A Receptor Competitive Binding Assay
The Tag-lite adenosine A2A receptor ligand binding assay is a homogeneous alternative to radioligand binding assay and developed by Cisbio (Bedford, Mass.). We carried out this assay following Cisbio's instructions with minor modification. Pre-transfected, fluorescent donor-labelled cells (Cisbio Cat#: C1TT1A2A, 200 testes) was stored at −80° C. and thawed right before use. Cells were washed once with 5 ml TLB and gently resuspended in 2 ml TLB. 4 μl suspended cells was dispensed into each well of white low-volume 384-well plate (Greiner Bio-One). Serial dilutions of compounds were prepared in Tag-lite buffer (TLB, Cisbio Cat #: LABMED) to a DMSO concentration of 0.6%. After adding 4 μl of compound dilutions to each well, 4 μl60 nM Adenosine A2A receptor red antagonist fluorescent ligand (Cisbio Cat #: L0058RED) was dispensed to each well. The 384-well assay plate was centrifuged briefly and incubated at room temperature for 2 h. HTRF signals were measured using CIARIOstar plate reader (BMG Labtech).

[3] = 8 nM CGS, values separated by / are repeat determinations, read-out: cAMP (nM) 0.1% BSA, 8 nM CGS
[4] = 2 h room temperature, values separated by / are repeat determinations
[5] = 1 uM CGS, read-out: cAMP (nM) 0.1% BSA, 1 uM CGS

T1 sequence (P29274 whole entry): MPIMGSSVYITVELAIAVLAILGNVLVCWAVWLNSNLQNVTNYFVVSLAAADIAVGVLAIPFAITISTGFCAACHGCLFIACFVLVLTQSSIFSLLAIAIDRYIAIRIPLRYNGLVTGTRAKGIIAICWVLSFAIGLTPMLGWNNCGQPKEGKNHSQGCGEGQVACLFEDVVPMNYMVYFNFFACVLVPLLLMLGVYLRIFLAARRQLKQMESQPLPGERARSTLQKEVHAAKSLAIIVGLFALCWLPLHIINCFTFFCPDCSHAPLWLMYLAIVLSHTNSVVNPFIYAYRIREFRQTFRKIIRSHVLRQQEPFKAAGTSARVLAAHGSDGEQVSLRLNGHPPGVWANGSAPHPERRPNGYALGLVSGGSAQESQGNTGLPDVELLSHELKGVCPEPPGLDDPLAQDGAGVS

SMILES	IC50 [2, 4]	also measured
Cc1cc(-c2c(OCCc3ccc(C(C)(C)O)cc3)nc(N)nc2-c2ccc(F)cc2)cc(C(F)F)n1 [Example 68, 2-(4-(2-((2-amino-5-(2-(difluoromethyl)-6-methylpyridin-4-yl)-6-(4-fluorophenyl)pyrimidin-4-yl)oxy)ethyl)phenyl)propan-2-ol]	22 nM	IC50 [1, 3]: 2.7 nM
Cc1cc(-c2c(OCCCS(C)(=O)=O)nc(N)nc2-c2ccc(F)cc2)cc(C(F)F)n1 [Example 46, 5-(2-(difluoromethyl)-6-methylpyridin-4-yl)-4-(4-fluorophenyl)-6-(3-(methylsulfonyl)propoxy)pyrimidin-2-amine]	5.7 nM and 5.9 nM	IC50 [1, 3]: 0.45 nM and 0.84 nM and 2.1 nM; IC50 ([1]; 1 uM CGS, values separated by / are repeat determinations, read-out: cAMP (nM) 0.1% BSA, 1 uM CGS): 1780 nM and 714 nM
CCN(CC(C)O)C(=O)COc1nc(N)nc(-c2ccc(F)cc2)c1-c1cc(C)nc(C(F)F)c1 (stereo not shown) [Example 198, 2-((2-amino-5-(2-(difluoromethyl)-6-methylpyridin-4-yl)-6-(4-fluorophenyl)pyrimidin-4-yl)oxy)-N-ethyl-N-(2-hydroxypropyl)acetamide]		IC50 ([1]; 8 nM CGS, read-out: cAMP (nM) 0.1% BSA, 8 nM CGS): 10 nM; IC50 ([2]; HTRF): 14.9 nM
Cc1cc(-c2c(OCC(CO)N(C)c3ccccn3)nc(N)nc2-c2ccc(F)cc2)cc(C(F)F)n1 (stereo not shown) [Example 199, 3-((2-amino-5-(2-(difluoromethyl)-6-methylpyridin-4-yl)-6-(4-fluorophenyl)pyrimidin-4-yl)oxy)-2-(methyl(pyridin-2-yl)amino)propan-1-ol]		IC50 [1, 5]: 148 nM; IC50 ([2]; HTRF): 7.2 nM
CNC(=O)NCCOc1nc(N)nc(-c2ccc(F)cc2)c1-c1cc(C)nc(C(F)F)c1 [Example 113, 1-(2-((2-amino-5-(2-(difluoromethyl)-6-methylpyridin-4-yl)-6-(4-fluorophenyl)pyrimidin-4-yl)oxy)ethyl)-3-methylurea]	8.9 nM	IC50 [1, 3]: 16 nM and 7.5 nM
CCN(CC)C(=O)COc1nc(N)nc(-c2ccc(C)o2)c1-c1cc(C)nc(C(F)(F)F)c1 [Example 12, 2-((2-amino-5-(2-methyl-6-(trifluoromethyl)pyridin-4-yl)-6-(5-methylfuran-2-yl)pyrimidin-4-yl)oxy)-N,N-diethylacetamide]	13.8 nM	IC50 [1, 3]: 2 nM
Cc1cc(-c2c(OCCc3ccccc3)nc(N)nc2-c2ccccc2)cc(C(F)(F)F)n1 [Example 8, 5-(2-methyl-6-(trifluoromethyl)pyridin-4-yl)-4-phenethoxy-6-phenylpyrimidin-2-amine]	10.2 nM and 18 nM	IC50 [1, 3]: 7.4 nM and 7.7 nM
Cc1cc(-c2c(OCc3ccncn3)nc(N)nc2-c2ccc(F)cc2)cc(C(F)F)n1 [Example 218, 5-(2-(difluoromethyl)-6-methylpyridin-4-yl)-4-(4-fluorophenyl)-6-(pyrimidin-4-ylmethoxy)pyrimidin-2-amine]		IC50 [1, 5]: 76 nM and 48 nM; IC50 ([2]; HTRF): 1.7 nM
Cc1cc(-c2c(OCc3nccn3CS(C)(=O)=O)nc(N)nc2-c2ccc(F)cc2)cc(C(F)F)n1 [Example 215, 5-(2-(difluoromethyl)-6-methylpyridin-4-yl)-4-(4-fluorophenyl)-6-((1-((methylsulfonyl)methyl)-1H-imidazol-2-yl)methoxy)pyrimidin-2-amine]		IC50 [1, 5]: 965 nM; IC50 ([2]; HTRF): 9.7 nM
Cc1cc(-c2c(CNC(=O)N(C)C)nc(N)nc2-c2ccc(F)cc2)cc(C(F)F)n1 [Example 78, 3-((2-amino-5-(2-(difluoromethyl)-6-methylpyridin-4-yl)-6-(4-fluorophenyl)pyrimidin-4-yl)methyl)-1,1-dimethylurea]	11 nM	IC50 [1, 3]: 51 nM
CC(=O)N1CCN(c2ccc(CCOc3nc(N)nc(-c4ccc(F)cc4)c3-c3cc(C)nc(C(F)F)c3)cc2)CC1 [Example 31, 1-(4-[4-[2-([2-amino-5-[2-(difluoromethyl)-6-methylpyridin-4-yl]-6-(4-fluorophenyl)pyrimidin-4-yl]oxy)ethyl]phenyl]piperazin-1-yl)ethan-1-one]	8.35 nM	
Cc1cc(-c2c(OCCN3CCN(C)CC3)nc(N)nc2-c2ccc(F)cc2)cc(C(F)F)n1 [Example 35, 5-(2-(difluoromethyl)-6-methylpyridin-4-yl)-4-(4-fluorophenyl)-6-(2-(4-methylpiperazin-1-yl)ethoxy)pyrimidin-2-amine]	124 nM	
CCN(CC)C(=O)CCc1nc(N)nc(-c2ccccc2)c1-c1cc(C)nc(C(F)(F)F)c1 [Example 18, 3-(2-amino-5-(2-methyl-6-(trifluoromethyl)pyridin-4-yl)-6-phenylpyrimidin-4-yl)-N,N-diethylpropanamide]	433 nM	
Cc1cc(-c2c(OCc3nccn3CCC(C)(C)C(=O)O)nc(N)nc2-c2ccc(F)cc2)cc(C(F)F)n1 [Example 216, 4-(2-(((2-amino-5-(2-(dilfluoromethyl)-6-methylpyridin-4-yl)-6-(4-fluorophenyl)pyrimidin-4-yl)oxy)methyl)-1H-imidazol-1-yl)-2,2-dimethylbutanoic acid]		IC50 ([2]; HTRF): 306 nM
Cc1cc(-c2c(OC3CCOCC3)nc(N)nc2-c2ccc(F)cc2)cc(C(F)F)n1 [Example 33, 5-(2-(difluoromethyl)-6-methylpyridin-4-yl)-4-(4-fluorophenyl)-6-((tetrahydro-2H-pyran-4-yl)oxy)pyrimidin-2-amine]	66.5 nM	
Cc1cc(-c2c(OC3COC3)nc(N)nc2-c2ccc(F)cc2)cc(C(F)F)n1 [Example 34, 5-(2-(difluoromethyl)-6-methylpyridin-4-yl)-4-(4-fluorophenyl)-6-(oxetan-3-yloxy)pyrimidin-2-amine]	45.3 nM	
Cc1cc(-c2c(OCC3COC3)nc(N)nc2-c2ccc(F)cc2)cc(C(F)F)n1 [Example 37, 5-(2-(difluoromethyl)-6-methylpyridin-4-yl)-4-(4-fluorophenyl)-6-(oxetan-3-ylmethoxy)pyrimidin-2-amine]	10.2 nM	
CCN(CC)C(=O)CNc1nc(N)nc(-c2ccccc2)c1-c1cc(C)nc(C(F)(F)F)c1 [Example 30, 2-((2-amino-5-(2-methyl-6-(trifluoromethyl)pyridin-4-yl)-6-phenylpyrimidin-4-yl)amino)-N,N-diethylacetamide]	9.95 nM	
Cc1cc(-c2c(C(=O)NCc3cccc(C(C)(C)O)n3)nc(N)nc2-c2ccc(F)cc2)cc(C(F)F)n1 [Example 110, 2-amino-5-(2-(difluoromethyl)-6-methylpyridin-4-yl)-6-(4-fluorophenyl)-N-((6-(2-hydroxypropan-2-yl)pyridin-2-yl)methyl)pyrimidine-4-carboxamide]	250 nM	
Cc1cc(-c2c(C(=O)NCc3cccc(C4CC4)n3)nc(N)nc2-c2ccc(F)cc2)cc(C(F)F)n1 [Example 109]	205 nM	
Cc1cc(-c2c(OCC(=O)N(C)C3COC3)nc(N)nc2-c2ccc(F)cc2)cc(C(F)F)n1 [Example 101, 2-((2-amino-5-(2-(difluoromethyl)-6-methylpyridin-4-yl)-6-(4-fluorophenyl)pyrimidin-4-yl)oxy)-N-methyl-N-(oxetan-3-yl)acetamide]	70 nM	
Cc1cc(-c2c(OCCN3CCN(S(C)(=O)=O)CC3)nc(N)nc2-c2ccc(F)cc2)cc(C(F)F)n1 [Example 49, 5-(2-(difluoromethyl)-6-methylpyridin-4-yl)-4-(4-fluorophenyl)-6-(2-(4-(methylsulfonyl)piperazin-1-yl)ethoxy)pyrimidin-2-amine]	13.9 nM	
Cc1cc(-c2c(OCCc3ccc(N4CCN(C5COC5)CC4)cc3)nc(N)nc2-c2ccc(F)cc2)cc(C(F)F)n1 [Example 64, 5-[2-(difluoromethyl)-6-methylpyridin-4-yl]-4-(4-fluorophenyl)-6-(2-[4-[4-(oxetan-3-yl)piperazin-1-yl]phenyl]ethoxy)pyrimidin-2-amine]	31 nM	
